Reference: patent US8232063B2, “H+-gated ion channel” (University of Utah Research Foundation, priority 2004, dated 2012)
“Also recorded” adds a separate entry of the source. Like-named read-outs stand apart in the source and are kept apart here.

What was measured:
PBO-5/PBO-8 receptors = assay: Two-electrode voltage clamp of Xenopus oocytes coinjected with PBO-5 and PBO-8 cRNA; format: cell-based, C. elegans; details: for run-down (use-dependent block) of H+-evoked current by the buffer of the extracellular solution: repeated pH 6.8 test pulses
Procedure: (§1) Capped RNA was prepared using the T7 mMessage mMachine kit (Ambion). Xenopus oocytes were collected and coinjected with 25 ng each of PBO-5 and PBO-8 cRNA and two-electrode voltage clamp recordings were performed 3-5 days post-injection. The standard bath solution for dose-response and control I-V experiments was Ringer's (in mM): 115 NaCl, 1.8 […], 10 Bis-Tris Propane (pH 7.4 Acetic acid). For dose-response experiments, each oocyte was subjected to a 5 second application of test pH (7.0 - 5.0) with 2 minutes of pH 7.4 wash between test applications.
Ion selectivity experiments: All points are responses to test pulse applications of pH 6.8 for 5 seconds. The reversal potential of PBO-5/PBO-8 expressing oocytes were first determined in standard Ringer's (in mM): 115 NaCl, 1.0 CaCl2, 10 Bis-Tris Propane (pH 7.4, acetic acid). For chloride permeability a simplified solution was used, chloride-free (in mM): 115 Na^+ gluconate, 1.0 CaCl2, 10 Bis-Tris Propane (pH 7.4 acetic acid). For Na^+ permeability a simplified solution was used, Na^+ free (in mM): 115 mM N-methyl D-glucamine (NMDG), 1.8 CaCl2, 10 Bis-Tris Propane (pH 7.4 acetic acid)). All solutions were brought to pH by addition of NaOH or acetic acid. To determine K^+ permeability, I-V experiments were performed in K^+ Ringer's (in mM): 115 K^+-gluconate, 1.0 CaCl2, 10 Bis-Tris Propane (pH=7.4 acetic acid). To determine Ca^2+ permeability extracellular Na^+ was lowered to 90 mM and extracellular CaCl2 was increased to 3 mM and 10 mM, compare to 1 mM Ca^2+ control. To better resolve calcium permeability, the Na^+ free solution was used except CaCl2 was increased ten-fold, 18 mM CaCl2 (in mM): 115 NMDG, 18 CaCl2, 10 Bis-Tris Propane, (pH 7.4 acetic acid). Osmolarity was measured for each solution and was maintained at 240 mOsm by the addition of sucrose. All recordings were done at room temperature. We used 3M KCl filled electrodes with a resistance between 1-3 MΩ. We used a 3M KCl agar bridge to minimize liquid junction potentials, and all liquid junctions potentials arising at the tip of the recording electrode were corrected online.
Data analysis. Data acquisition and analysis were performed using Axograph (Axon Instruments) software, and curve fitting and statistical analysis were performed with Prism (Graphpad). Dose-response curves from individual oocytes were normalized to the maximum and minimum values and averaged for at least eleven oocytes. Normalized data were fit to the four-parameter equation derived from the Hill equation: Y=Min+(Max−Min)/(1+10(Log EC50-X)(nH)), where Max is the maximal response, Min is the response at the lowest drug concentration, X is the logarithm of agonist concentration, EC50 is the half-maximal response, and nH is the Hill coefficient. Error bars represent the standard error of the mean.

PBO-5 homomers = biological target: T1, PBO-5 homomers (Caenorhabditis elegans, UniProt G5ECT0); assay: Two-electrode voltage clamp of Xenopus oocytes injected with PBO-5 cRNA (homomers); format: cell-based, C. elegans
T1 construct: cloned into the pCR2.1 TA cloning vector (Invitrogen) and a full length clone pPD68 was generated; expressed in transfected cells; host or cells: Xenopus oocytes injected with PBO-5 cRNA (pSGEM-based plasmid pAB20)
T1 sequence (G5ECT0 22-504 isoform G5ECT0-2 limits assumed): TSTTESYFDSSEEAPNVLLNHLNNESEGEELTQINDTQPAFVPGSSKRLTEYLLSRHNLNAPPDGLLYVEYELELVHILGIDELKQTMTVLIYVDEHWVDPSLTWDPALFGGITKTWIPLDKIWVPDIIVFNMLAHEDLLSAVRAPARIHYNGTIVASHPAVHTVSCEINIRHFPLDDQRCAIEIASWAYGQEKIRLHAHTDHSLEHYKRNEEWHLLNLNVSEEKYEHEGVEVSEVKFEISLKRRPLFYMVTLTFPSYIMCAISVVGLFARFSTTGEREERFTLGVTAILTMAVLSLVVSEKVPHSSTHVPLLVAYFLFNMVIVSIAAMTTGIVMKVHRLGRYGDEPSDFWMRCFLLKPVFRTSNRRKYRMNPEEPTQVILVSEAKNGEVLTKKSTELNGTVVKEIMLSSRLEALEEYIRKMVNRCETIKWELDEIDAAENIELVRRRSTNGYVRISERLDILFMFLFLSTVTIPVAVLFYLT
Procedure: as §1
To determine if PBO-5 can form a homo-oligomeric receptor, we injected PBO-5 cRNA in Xenopus oocytes. […] Two-electrode voltage clamp recordings were used to assay receptor functionality.
To determine if PBO-5 and PBO-8 can co-assemble to form a functional receptor, we injected PBO-5 and PBO-8 cRNA into Xenopus oocytes. […] To determine the possible signal that mediates posterior body contraction we examined the pbo-4 gene.

PBO-8 homomers = assay: Two-electrode voltage clamp of Xenopus oocytes injected with PBO-8 cRNA (homomers); format: cell-based, C. elegans
[1] = test system: posterior body contraction; assay: Posterior body contraction of the defecation cycle in vivo; parameters: species or system C. elegans; details: 100 mM, pH 7.2, injected into pseudocoelomic space
Procedure: To determine if H^+ ions are required to initiate a posterior body contraction endogenous acidification of the pseudocoelomic space is blocked. For example, 100 mM Bis-Tris Propane buffered saline (pH 7.2) is injected into the pseudocoelomic space of an animal and defecation cycles postinjection observed. […] The injected animals should phenocopy both pbo-4 and pbo-5 mutants.
Alternatively, a caged buffer is used to assay the requirement for H^+ activation of PBO-5/PBO-8 receptors in vivo. For example, animals are injected with a caged buffer (Molecular Probes) and the buffer uncaged, by flash photolysis, as a posterior body contraction is about to occur. An advantage of the latter scheme is that an animal can be injected first and then observed for a number of cycles to determine if it retains normal defecation cycles, and in particular posterior body contractions. After quantification of a number of defecation cycles, the buffer is uncaged and the animal observed for a specific loss of posterior body contraction. Li addition, the inverse experiment, where caged protons are injected, may be conducted to elicit an out of phase posterior body contraction by uncaging the protons during the intercycle.
The posterior body contraction occurs via a calcium-regulated mechanism. […]

[2] = Xenopus oocytes, two-electrode voltage clamp

With `NCCc1c[nH]c2ccc(O)cc12` [serotonin] the “activation of PBO-5/PBO-8 heteromers” value (PBO-5/PBO-8 receptors; [2]) was “lacked the ability to activate”, the “activation of PBO-5 homomers (functional response)” value (from here on “activation of PBO-5 homomers”) (PBO-5 homomers) was “failed to elicit a functional response” and the “activation of PBO-5 homomers” value (PBO-5 homomers; listed as 5-HT) was “lacked the ability to activate”. The “activation of PBO-8 homomers” value (PBO-8 homomers) was “lacked the ability to activate”.
For `N=C(N)NC(=O)c1nc(Cl)c(N)nc1N` [amiloride], the “block of PBO-5/8 gating” value (PBO-5/PBO-8 receptors; 1 mm amiloride) was “did not result current block”.
In the case of `NCC(=O)O` [glycine], the “activation of PBO-5/PBO-8 heteromers” value (PBO-5/PBO-8 receptors) is reported as “lacked the ability to activate”, the “activation of PBO-5 homomers” value (PBO-5 homomers) is reported as “failed to elicit a functional response; also recorded: lacked the ability to activate” and the “activation of PBO-8 homomers” value (PBO-8 homomers) is reported as “lacked the ability to activate”.
With `N[C@@H](CCC(=O)O)C(=O)O` [glutamate] the “activation of PBO-5/PBO-8 heteromers” value (PBO-5/PBO-8 receptors; [2]) was “lacked the ability to activate”, the “activation of PBO-5 homomers” value (PBO-5 homomers) was “lacked the ability to activate” and the “activation of PBO-8 homomers” value (PBO-8 homomers) was “lacked the ability to activate”.
`[1H+]` [H^+] was tested, and the pH50 (PBO-5/PBO-8 receptors; 1 mM Ca2+ control conditions) was 6.88, the pH50 (PBO-5/PBO-8 receptors; 10 mM Ca2+ test conditions) was 6.59 and the “activation of PBO-5/PBO-8 heteromers” value (PBO-5/PBO-8 receptors; [2]) was “sufficient to activate”. For the same compound, the “pH of 10% maximal activation” value (PBO-5/PBO-8 receptors; perfusion buffer pH 7.4) was roughly 7.0 and the “pH50 (half-maximal activation)” value (PBO-5/PBO-8 receptors; voltage-clamped at -60 mV, test pH 5 seconds, standard Ringer's, n=18) was 6.83±0.01.
`[Ca+2]` [Ca^2+] was tested, and the “maximal activation of PBO-5/PBO-8 on increasing extracellular Ca2+” value (PBO-5/PBO-8 receptors; pH 6.0) was “no effect on maximal activation”, the “effect of extracellular Ca2+ on gating of PBO-5/PBO-8 (mode of action)” value (PBO-5/PBO-8 receptors; pH 6.8, 10.0 mM vs 1.0 mM Ca2+) was “inhibit gating; also recorded: competitive antagonist” and the “H-evoked responses compared to 1 mM Ca2+ control” value (PBO-5/PBO-8 receptors; pH 7.0 and 6.8, Ca2+ increased to 3 mM and 10 mM) was “significantly reduced”.
With `O=S(=O)(O)CCN1CCOCC1` [MES, 2-(N-Morpholino)-ethanesulfonic acid] the “run-down (use-dependent block) of H+-evoked current by the buffer of the extracellular solution” value (shortened to “run-down (use-dependent block)”) (PBO-5/PBO-8 receptors) was “did not cause current run-down”.
For d-tubocurare, the “pharmacological block of PBO-5/8 responses” value (PBO-5/PBO-8 receptors; cholinergic antagonist applied to PBO-5/8 expressing cells) was “all attempts to pharmacologically block PBO-5/8 responses failed”.
For `NCCCC(=O)O` [GABA, γ-aminobutyric acid], the “co-activation: pH 6.8 plus ligand compared with pH 6.8 only application” value (PBO-5/PBO-8 receptors; 1 mM ligand, pH 6.8) was “not significantly different”, the “activation of PBO-5/PBO-8 heteromers” value (PBO-5/PBO-8 receptors; [2]) was “lacked the ability to activate” and the “activation of PBO-5 homomers” value (PBO-5 homomers) was “failed to elicit a functional response; also recorded: lacked the ability to activate”. For the same compound, the “activation of PBO-8 homomers” value (PBO-8 homomers) was “lacked the ability to activate”.
With `OCC(CO)(CO)NCCCNC(CO)(CO)CO` [Bis-Tris Propane, 1,3-Bis[tris(hydroxymethyl)methylamino) propane] the “run-down (use-dependent block)” value (PBO-5/PBO-8 receptors) was “did not cause current run-down” and the “posterior body contraction after injection of buffered saline into the pseudocoelomic space” value [1] was “fail to initiate a posterior body contraction”.
`O=S(=O)(O)CCN1CCN(CCO)CC1` [HEPES, N-2-hydroxyethylpiperazine-N′-2-ethanesulfonic acid] was tested, and the “run-down (use-dependent block)” value (PBO-5/PBO-8 receptors) was “very rapid rundown; also recorded: inhibitory to the receptor”.
